Measurements published in patent US20200038514A1, “FOLATE CONJUGATE FOR USE IN TARGETING TUMOR ASSOCIATED MACROPHAGES” (ENDOCYTE, INC., priority 2016, published 2020).

Experiments:
[1] = system: ST070 ovarian PDX tumors; assay: In vivo activity against ovarian tumors; design: species or system mice; details: Conjugate 5 0.5 μmol/kg SIW; EC1456 4.0 μmol/kg SIW; paclitaxel 15 mg/kg SIW; two weeks
Protocol: (§1) Mice were maintained and tumor volumes were measures according to Method 3.
(§2) Primary human Ovarian model ST070 fragments (2-4 mm in diameter) were inoculated subcutaneously at the right flank of each mouse. Mice were randomized into experimental groups of 7 mice each and test articles were injected through the lateral tail vein under sterile conditions in a volume of […] of phosphate-buffered saline (PBS).

[2] = system: TNBC PDX tumor; assay: In vivo activity against triple negative breast tumors (FIG. 10); design: species or system mice; details: Conjugate 5 0.27 μmol/kg BIW two weeks; erubulin mesylate 1.0 μmol/kg SIW two weeks
Protocol: as §1
as §2, with “TNBC” for “Ovarian”, “ST502 (2-4 mm in diameter) or primary human TNBC model ST738” for “ST070 fragments”

Compound	ovarian PDX tumor size compared to untreated control [1]	TNBC PDX tumor size compared to untreated control [2]
CC(=O)O[C@H]1C(=O)[C@@]2(C)[C@H]([C@H](OC(=O)c3ccccc3)[C@]3(O)C[C@H](OC(=O)[C@H](O)[C@@H](NC(=O)c4ccccc4)c4ccccc4)C(C)=C1C3(C)C)[C@]1(OC(C)=O)CO[C@@H]1C[C@@H]2O [paclitaxel, reference compound]	did not decrease ovarian PDX tumor size	–
erubulin mesylate [reference compound]	–	did not decrease TNBC PDX tumor size
